# Measured values taken from ChEMBL document CHEMBL2331147, “Scutellarin from Scutellaria baicalensis suppresses adipogenesis by upregulating PPARα in 3T3-L1 cells” (J Nat Prod, 2013).
# Calls of active or inactive are those of the source. No cut-off for these calls is given here.
# Legend:
# 3T3-L1 [1] = assay: Downregulation of C/EBPbeta mRNA expression in mouse 3T3L1 cells at 10 to 100 uM after 8 days by RT-PCR analysis; assay type: functional, cell-based
# 3T3-L1 [2] = assay: Antiadipogenic activity in mouse 3T3L1 cells assessed as downregulation of LPL mRNA expression at 10 to 100 uM after 8 days by RT-PCR analysis; assay type: functional, cell-based
# 3T3-L1 [3] = assay: Antiadipogenic activity in mouse 3T3L1 cells assessed as downregulation of PPARgamma mRNA expression after 8 days by RT-PCR analysis; assay type: functional, cell-based
# 3T3-L1 [4] = assay: Effect on PPARdelta mRNA expression in mouse 3T3L1 cells at 10 to 100 uM after 8 days by RT-PCR analysis; assay type: functional, cell-based
# 3T3-L1 [5] = assay: Antiadipogenic activity in mouse 3T3L1 cells assessed as upregulation of PPARalpha mRNA expression after 8 days by RT-PCR analysis; assay type: functional, cell-based
# 3T3-L1 [6] = assay: Cytotoxicity against mouse 3T3L1 cells assessed as cell viability at < 100 uM after 48 hrs by MTT assay; assay type: cell-based; settings: 3t3-l1, 48 h
# 3T3-L1 [7] = assay: Antiadipogenic activity in mouse 3T3L1 cells assessed as downregulation of C/EBPalpha mRNA expression after 8 days by RT-PCR analysis; assay type: functional, cell-based
# 3T3-L1 [8] = assay: Antiadipogenic activity in mouse 3T3L1 cells assessed as decrease in intracellular lipid accumulation incubated for 8 days followed by compound wash out measured for 60 mins by Oil Red O staining-based phase contrast microscopic analysis; assay type: functional, cell-based
structure (smiles),measurement,setting,value
O=C(O)[C@H]1O[C@@H](Oc2cc3oc(-c4ccc(O)cc4)cc(=O)c3c(O)c2O)[C@H](O)[C@@H](O)[C@@H]1O [SCUTELLARIN],Activity,3T3-L1 [1],inactive
same,Activity,3T3-L1 [2],Active
same,Activity,3T3-L1 [3],Dose-dependent effect
same,Activity,3T3-L1 [4],inactive
same,Activity,3T3-L1 [5],Dose-dependent effect
same,Activity,3T3-L1 [6],Non-toxic
same,Activity,3T3-L1 [7],Dose-dependent effect
same,Activity,3T3-L1 [8],Dose-dependent effect
